Source: US20180243421A1, “IMMUNOSTIMULATING AGENT” (AJINOMOTO CO., INC., priority 2015, published 2018)

How the values were obtained:
[1] = test system: anti-OVA-specific IgE antibody; settings: mouse, in vivo
Protocol: The serum sample obtained in Example 1 was measured for an anti-OVA-specific IgE antibody. The measurement method of the anti-OVA-specific IgE antibody in Example 3 and Examples 6, 9 is as follows.
Measurement Method of anti-OVA-specific IgE Antibody
DS mouse IgE ELISA (OVA) kit manufactured by DS Pharma Biomedical Co., Ltd. was used. The protocol is briefly shown below.
The serum sample and a standard reagent for drawing an analytical curve are diluted with a buffer and, after stirring, left standing at room temperature for 10 min. The sample and the standard solution are added to a plate bound with an IgE capture antibody in advance and, after stirring, the mixture is left standing at room temperature for 60 min. The mixture is washed three times with wash, HRP-labeled OVA is added, and the mixture is left standing at room temperature for 30 min. The mixture is washed three times with wash, a substrate solution is added, and the mixture is left standing in dark at room temperature for 30 min. A reaction quenching liquid is added, the mixture is stirred, and the absorbance (OD Value=450 nm) is immediately measured.
This test was performed in the same manner as in Example 3 except that N^2-hexadecanoyl-L-arginine (SZ61), N-hexadecanoylagmatine (SZ62), N^2-hexadecanoyl-L-arginine methyl ester hydrochloride (SZ63), N^2-octadecanoyl-L-glutamine tert-butyl ester (SZ64), and N^2-octadecanoyl-L-glutamine (SZ65) were used.
This test was performed in the same manner as in Example 6 except that N-hexadecanoylagmatine (SZ62), N^2-octadecanoyl-L-glutamine tert-butyl ester (SZ64), N-docosanoyl-L-leucine methyl ester (SZ70), and N-docosanoyl-L-phenylalanine methyl ester (SZ71) were used and a positive control adjuvant Addavax™ (InvivoGen) administration group was formed.
(§1) The allergy inducing activity test was performed in the same manner as in Example 3 except that Addavax™, N-(2-octadecyleicosanoyl)-L-leucine methyl ester (SZ86), N-hexadecanoyl-L-leucinamide (SZ90), N^2-hexadecanoyl-N^1,N^1-diethyl-L-leucinamide (SZ92), N^2-hexadecanoyl-L-arginine hexyl ester hydrochloride (SZ99) and N^2-docosanoyl-N^1,N^1-diethyl-L-glutamic acid 1-amide (SZ106) were used.
as §1, with “N-hexadecanoyl-L-leucine” for “N^2-hexadecanoyl-L-arginine”, “(SZ97),” for “hydrochloride (SZ99) and”, “(SZ106) and N-docosanoylagmatine hydrochloride (SZ108)” for “(SZ106)”
8-Week-old female BALB/c mice were divided into groups (N=6), and each group was primarily immunized by dorsal-subcutaneous administration of (1) ovalbumin (OVA) (5 μg) dissolved in saline as an antigen (OVA single administration group), (2) OVA (10 μg) and aluminum hydroxide salt dissolved in saline (Alum administration group), (3) OVA 10 μg and Addavax™ (mixed with saline at 1:1) dissolved in saline (Addavax™ administration group), (4) OVA 10 μg and CpG 5 μg dissolved in saline (CpG administration group), (5) OVA 10 μg and MPL 5 μg dissolved in saline (MPL administration group), (6) OVA (5 μg) and SZ62 (0.256 μmol) dissolved or dispersed in 5% αCD-added saline (SZ62 administration group), (7) OVA (5 μg), SZ62 (0.256 μmol) and CpG 5 μg dissolved or dispersed in 5% αCD-added saline (SZ62+CpG administration group), (8) OVA 10 μg, Addavax™ (mixed with saline at 1:1) and CpG 5 μg dissolved in saline (Addavax™+CpG administration group), (9) OVA (5 μg), SZ62 (0.256 μmol) and MPL 5 μg dissolved or dispersed in 5% αCD-added saline (SZ62+MPL administration group), (10) OVA (10 μg), aluminum hydroxide salt (Alum) and MPL 5 μg dissolved in saline (Alum+MPL administration group), each per mouse. One week later, the secondary immunization was carried out by dorsal-subcutaneous administration of solutions or dispersions similar to those of the above-mentioned (1) to (10) again.

[2] = test system: anti-OVA-specific IgG1 subclass antibody; test: Adjuvant activity: anti-OVA-specific IgG1 subclass antibody in serum after secondary immunization (Examples 1, 5, 7, 8; ELISA absorbance); assay type: in vivo, BALB/c mice
Protocol: Two weeks from the secondary immunization, the whole blood was extracted under anesthesia, and the obtained serum sample was measured for anti-OVA-specific IgG1 subclass antibody.
A method for measurement of the anti-OVA-specific IgG1 subclass antibody in Example 1, and the following Examples 5, 7 and 8 is as follows.
Measurement Method of anti-OVA-specific IgG1 Subclass Antibody
To a 96 well plate was added 5 μg/ml OVA at 100 μl/well, and the mixture was incubated at 4° C. overnight. After incubation, the mixture was washed three times with 200 μl of PBS-T (PBS+0.05%(v/v) Tween 20) per well, and blocked with 100 μl of 5% FCS/PBS solution per well at room temperature for 1 to 2 hr. Thereafter, the mixture was washed three times with PBS-T (200 μl/well), a diluted serum sample (100 μl/well) or the same amount of 5% FCS/PBS solution as a control was added, and the mixture was incubated at 37° C. for 1 hr. Thereafter, the mixture was washed five times with PBS-T (200 μl/well), a diluted biotinylated anti-mouse IgG1 antibody (100 μl/well) was added, and the mixture was incubated at 37° C. for 45 min. Thereafter, the mixture was washed five times with PBS-T (200 μl/well), a diluted anti-biotin-HRP antibody was added (100 μl/well), and the mixture was incubated at 37° C. for another 30 min. Thereafter, the mixture was washed five times with PBS-T (200 μl/well), TMB substrate solution was added (100 μl/well), and the mixture was incubated at room temperature for 10 to 15 min. Thereafter, a reaction quenching liquid (2N sulfuric acid solution) was added (50 μl/well) to discontinue a color developing reaction, and the absorbance (OD Value=450 nm) was measured by a microplate reader.

[3] = Example 5, same manner as Example 1
[4] = Example 8, same manner as Example 7
[5] = Example 7, same manner as Example 1, plus Addavax group

| Compound | anti-OVA-specific IgE antibody production as compared to the OVA single administration group [1] | adjuvant activity (IgG1) compared with Alum ([2]; Example 8) | anti-OVA-specific IgG1 subclass antibody production as compared to the OVA single administration group [2, 4] | adjuvant activity (IgG1) compared with Alum ([2]; Example 7) | anti-OVA-specific IgG1 subclass antibody production as compared to the OVA single administration group [2, 5] | further results |
| --- | --- | --- | --- | --- | --- | --- |
| CCCCCCCCCCCCCCCC(=O)N[C@@H](CCCNC(=N)N)C(=O)O [SZ61, N^2-hexadecanoyl-L-arginine] | a significant increase in the anti-OVA-specific IgE antibody production was not observed |  |  |  |  | allergy inducing activity as compared to aluminum hydroxide gel adjuvant [1]: lower allergy inducing activity |
| CCCCCCCCCCCCCCCC(=O)N[C@@H](CCCNC(=N)N)C(=O)OC.Cl [SZ63, N^2-hexadecanoyl-L-arginine methyl ester hydrochloride] | a significant increase in the anti-OVA-specific IgE antibody production was not observed | equivalent to or not less than that of Alum | significantly increased |  |  | adjuvant activity (IgG1) compared with Alum ([2]; Example 5): equivalent to or not less than that of Alum; anti-OVA-specific IgG1 subclass antibody production as compared to the OVA single administration group [2, 3]: significantly increased; allergy inducing activity as compared to aluminum hydroxide gel adjuvant [1]: lower allergy inducing activity |
| CCCCCCCCCCCCCCCCCC(=O)N[C@@H](CCC(N)=O)C(=O)OC(C)(C)C [SZ64, N^2-octadecanoyl-L-glutamine tert-butyl ester] | a significant increase in the anti-OVA-specific IgE antibody production was not observed | equivalent to or not less than that of Alum | significantly increased |  |  | adjuvant activity (IgG1) compared with Alum ([2]; Example 5): equivalent to or not less than that of Alum; anti-OVA-specific IgG1 subclass antibody production as compared to the OVA single administration group [2, 3]: significantly increased; allergy inducing activity as compared to aluminum hydroxide gel adjuvant [1]: lower allergy inducing activity; allergy inducing activity as compared to aluminum hydroxide gel adjuvant and Addavax [1]: lower allergy inducing activity |
| CCCCCCCCCCCCCCCCCC(=O)N[C@@H](CCC(N)=O)C(=O)O [SZ65, N^2-octadecanoyl-L-glutamine] | a significant increase in the anti-OVA-specific IgE antibody production was not observed |  |  |  |  | adjuvant activity (IgG1) compared with Alum ([2]; Example 5): equivalent to or not less than that of Alum; anti-OVA-specific IgG1 subclass antibody production as compared to the OVA single administration group [2, 3]: significantly increased; allergy inducing activity as compared to aluminum hydroxide gel adjuvant [1]: lower allergy inducing activity |
| CCCCCCCCCCCCCCCCCCCCCC(=O)NCC(=O)OC [SZ69, N-docosanoyl glycine methyl ester] |  |  |  | equivalent to or not less than that of Alum | significantly increased |  |
| CCCCCCCCCCCCCCCCCCCCCC(=O)N[C@@H](CCC(=O)O)C(=O)OC [SZ72, N-docosanoyl-L-glutamic acid 1-methyl ester] |  |  |  | equivalent to or not less than that of Alum | significantly increased |  |
| CCCCCCCCCCCCCCCCCCCCCC(=O)N[C@@H](CCCCN)C(=O)OC.O=C(O)C(F)(F)F [SZ73, N^2-docosanoyl-L-lysine methyl ester trifluoroacetic acid salt] |  |  |  | equivalent to or not less than that of Alum | significantly increased |  |
| CCCCCCCCCCCCCCCCCCCCCC(=O)N[C@H](C(=O)OC)[C@@H](C)CC [SZ76, N-docosanoyl-L-isoleucine methyl ester] |  |  |  | equivalent to or not less than that of Alum | significantly increased |  |
| CCCCCCCCCCCCCCCCCCCCCC(=O)N[C@H](C(=O)OC)C(C)C [SZ77, N-docosanoyl-L-valine methyl ester] |  |  |  | equivalent to or not less than that of Alum | significantly increased |  |
| CCCCCCCCCCCCCCCC(=O)NCC(=O)OC [SZ78, N-hexadecanoyl glycine methyl ester] |  | equivalent to or not less than that of Alum | a significant difference was not found |  |  | anti-OVA-specific IgG1 subclass antibody production compared with Alum ([2]; Example 8): equivalent to that of Alum |
| CCCCCCCCCCCCCCCC(=O)N[C@@H](CC(C)C)C(=O)OC [SZ79, N-hexadecanoyl-L-leucine methyl ester] |  | equivalent to or not less than that of Alum | a significant difference was not found |  |  | anti-OVA-specific IgG1 subclass antibody production compared with Alum ([2]; Example 8): equivalent to that of Alum |
| CCCCCCCCCCCCCCCC(=O)N[C@@H](Cc1ccccc1)C(=O)OC [SZ80, N-hexadecanoyl-L-phenylalanine methyl ester] |  | equivalent to or not less than that of Alum | significantly increased |  |  |  |
| CCCCCCCCCCCCCCCC(=O)N[C@@H](CCCCN)C(=O)OC.O=C(O)C(F)(F)F [SZ81, N^2-hexadecanoyl-L-lysine methyl ester trifluoroacetic acid salt] |  | equivalent to or not less than that of Alum | a significant difference was not found |  |  | anti-OVA-specific IgG1 subclass antibody production compared with Alum ([2]; Example 8): equivalent to that of Alum |
| CCCCCCCCCCCCCCCC(=O)N[C@@H](CCC(=O)O)C(=O)OC [SZ82, N-hexadecanoyl-L-glutamic acid 1-methyl ester] |  | equivalent to or not less than that of Alum | significantly increased |  |  |  |
| Alum [reference compound] | significantly increased |  |  |  |  |  |
